Assay results as given in patent publication US20230095907A1, “STIMULATION OF NEURONAL PLASTICITY” (Institute of Science and Technology Austria, priority 2019, published 2023).

Legend:
[1] = system: gamma oscillations in the brain; test: Power spectrum analysis of brain oscillations after repeated ketamine exposure; format: in vivo
[2] = ketamine; cited from earlier work
perineuronal net (PNN) [3] = test: PNN-covered cells (WFA staining) in primary somatosensory cortex after repeated KXA-anaesthesia; format: in vivo, C57BL/6J mice; details: female compared with male
Protocol: (§1) C57BL/6J mice were intraperitoneal (i.p.) injected in the morning. Deep anaesthesia was confirmed based on the following parameters: • 1. Absence of the toe pinch reflex around 10 minutes after induction. • 2. Decrease in the respiratory frequency. • 3. No responses to external stimuli. • 4. Flaccid paralysis. • 5. Absence of whiskers movement.
(§2) Solution was always freshly prepared to avoid pH fluctuations.
(§3) For histological analysis, animals were shortly anesthetized with isoflurane (Zoetis) and secured to the perfusion plate. The chest was open to expose the hearth. […] The animals were initially perfused with 20 mL of phosphate-buffered saline (PBS) with heparin (100 mg/L, Sigma H0878), followed by 20 mL of 4% (w/v) paraformaldehyde (PFA, Sigma P6148) in PBS using a peristaltic pump (Behr PLP 380, speed: 25 rpm). The animals were decapitated, the retina and brain explanted, and post-fixed in 4% (w/v) PFA/PBS for 30 minutes and overnight (16h), respectively. […]
(§4) Perineuronal net density per mm^3. In each image, neurons surrounded by perineuronal nets were counted using the spot detection function of Imaris (Oxford Instruments). […]
(§5) Perineuronal net density per mm^3: Each data point represents the count of neurons surrounded by PNN in one image per animal (biological replicates). For all following analyses, cell densities were calculated as a percentage with the respective control set to 100%. […]

[4] = system: parvalbumin-positive neurons, microglia, astrocytes; test: Cell density, apoptosis and astrogliosis in S1 (parvalbumin, Iba1, Caspase3, GFAP immunostaining)
Protocol: For histological analysis, animals were shortly anesthetized with isoflurane (Zoetis) and secured to the perfusion plate. The chest was open to expose the hearth. […] The animals were initially perfused with 20 mL of phosphate-buffered saline (PBS) with heparin (100 mg/L, Sigma H0878), followed by 20 mL of 4% (w/v) paraformaldehyde (PFA, Sigma P6148) in PBS using a peristaltic pump (Behr PLP 380, speed: 25 rpm). The animals were decapitated, the retina and brain explanted, and post-fixed in 4% (w/v) PFA/PBS for 30 minutes and overnight (16h), respectively. Then, the tissues were washed in PBS and stored at 4° C. with 0.025% (w/v) sodium azide (VWR 786-299). For cryoprotection, the tissue was transferred in 30% (w/v) sucrose (Sigma 84097) in PBS and incubated overnight at 4° C. To increase antibody permeability, the brain slices were frozen over dry-ice and thawed at room temperature for three cycles.
P-values were adjusted with the “p.adjust” function and the method set to “BH”.

perineuronal net (PNN) [5] = test: PNN-covered cells (WFA staining) in primary visual cortex (V1); format: in vivo, C57BL/6J mice; details: female compared with male
Protocol: as §1, §2, §3, §4, §5

[6] = target: purinergic receptor P2Y12 (Mus musculus, UniProt Q9CPV9); details: 3×, S1
purinergic receptor P2Y12, sequence (Q9CPV9 whole entry): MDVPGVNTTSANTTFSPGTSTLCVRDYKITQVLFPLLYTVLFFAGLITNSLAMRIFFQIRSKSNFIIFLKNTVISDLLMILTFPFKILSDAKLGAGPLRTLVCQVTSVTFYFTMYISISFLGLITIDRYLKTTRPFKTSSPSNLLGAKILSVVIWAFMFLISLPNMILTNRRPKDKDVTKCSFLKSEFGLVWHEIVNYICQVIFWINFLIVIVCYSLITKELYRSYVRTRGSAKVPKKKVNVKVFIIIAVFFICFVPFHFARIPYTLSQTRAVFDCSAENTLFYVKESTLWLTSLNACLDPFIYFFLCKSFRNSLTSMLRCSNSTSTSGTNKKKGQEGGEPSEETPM
Protocol: Clopidogrel: Clopidogrel (Tocris 2490) was dissolved in dimethyl sulfoxide (DMSO, Sigma, D8418) and diluted 1:4 in phosphate buffer saline (PBS) before the injection.
Perineuronal net density per mm^3. In each image, neurons surrounded by perineuronal nets were counted using the spot detection function of Imaris (Oxford Instruments). The total cell count was normalised to the entire image volume and data are represented as number of cells surrounded by perineuronal nets per mm^3.
Perineuronal net density per mm^3: Each data point represents the count of neurons surrounded by PNN in one image per animal (biological replicates). For all following analyses, cell densities were calculated as a percentage with the respective control set to 100%. Linear regression was used to predict cell density per mm^3 (as absolute values or as percentages compared to the respective control) by experimental condition in cases where more than two levels were involved. Then, a two-sided T-test was then used to investigate differences between experimental conditions in cases where only two levels were involved. P-values were adjusted with the “p.adjust” function and the method set to “BH”.

CNC1(c2ccccc2Cl)CCCCC1=O (stereo not drawn) [ketamine, 2-(2-chlorophenyl)-2-(methylamino)cyclohexan-1-one]
60 Hz frequency gamma oscillations in the brain [1]: increase in 60 Hz frequency gamma oscillations
half-life [2]: 2 h
sex difference in the action (PNN loss) of repeated exposure (perineuronal net (PNN) [3]): accelerated in females
apoptosis ([4]; repeated ketamine exposure): does not induce apoptosis
parvalbumin-positive neuron density ([4]; repeated ketamine exposure): does not induce apoptosis or alteration in parvalbumin-positive neuron density
astrogliosis (GFAP) ([4]; repeated ketamine exposure (6×KXA)): nor induce astrogliosis
sex difference in PNN recovery rate (perineuronal net (PNN) [5]): recovery rate was similar

COC(=O)[C@H](c1ccccc1Cl)N1CCc2sccc2C1 [clopidogrel]
loss of PNN-covered cells ([6]; 50 mg/Kg clopidogrel i.p. 5 minutes before KXA): prevented ketamine-mediated loss of PNN-covered cells
microglia interaction with the PNN structure ([6]; clopidogrel i.p. 5 minutes before KXA): microglia showed less interaction with the PNN structure
